Measurements from US11370769B2, “TRPC5 inhibitors and methods of using same” (BOARD OF REGENTS OF THE UNIVERSITY OF NEBRASKA, priority 2017, dated 2022).

System: Dahl S rats
Experiment: Dahl salt-sensitive rat model of hypertension-induced FSGS
Format: in vivo
Protocol: Animals and chemicals: Littermates of wild-type (WT) and AT1R TgNeph-hAT1R/185 transgenic (AT1R Tg) rats were housed under a controlled environment with a 12-hour light-dark cycle and access to food and water ad libitum, unless otherwise described. All animal experiments were performed in accordance to the guidelines established and approved by the Animal Care and Use Committee at Brigham and Women's Hospital, Harvard Medical School (Animal Protocol No. 01538). AT1R Tg rats were placed in the Onset cohort when measured proteinuria was >5 mg/day (at approximately 12 weeks of age) on two separate 24-hour urine collections. AT1R Tg rats were placed in the Advanced cohort when measured proteinuria was >25 mg/day (at approximately 18 weeks of age) on two separate 24-hour urine collections. These thresholds were determined after detailed histologic and phenotypic characterization of AT1R Tg rats compared to WT littermates (all combined, n=91 WT rats and n=122 AT1R Tg rats were studied). The Dahl salt-sensitive (S) inbred strain is maintained at University of Mississippi Medical Center (UMMC) and was originally obtained from University of Toledo-College of Medicine (SS/Jr). All animal experiments performed at UMMC were in accordance to the guidelines established and approved by the Institutional Animal Care and Use Committee. Animals used for this studied were provided either low-salt diet [TD7034, 0.3% NaCl and/or high-salt diet [TD94217, 2.0% NaCl] from Harlan Teklad, Madison, Wis. For onset study, at 4 weeks of age, groups of age-matched male S were weaned to the low-salt diet and divided into two groups: vehicle (n=8) and AC1903 groups (n=8). At 6 weeks of age, both groups were placed on the high-salt diet and concurrently treated with either vehicle or AC1903 for 1-week (Onset). For Advanced study, similarly at 4 weeks of age, groups of age-matched male S were weaned to the low-salt diet and divided into two groups: vehicle (n=9) and AC1903 groups (n=11). At 6 weeks of age, both groups were placed on the high-salt diet. At week 7, concurrent with high-salt diet, animals were treated with either vehicle or AC1903 for 1-week (Advanced). At the conclusion of each study, animals were initially anesthetized under 2-3% isoflurane/O2 gas, a catheter attached to a fluid filled pressure transducer was placed in the aorta, isoflurane gas was reduced to 1.5%, and mean arterial pressure was measured for ˜5 min period using PowerLab 4/30 system (ADI Instruments, Co) as done previously. All chemicals were purchased from Sigma-Aldrich unless otherwise described.
Chemical preparation and IP administration: ML204 and AC1903 were prepared from powder in a single batch for each in vivo experiment to avoid variability. Immediately prior to injections, ML204 or AC1903 solution was placed on a heated shaker at 48° C. and 800 RPM. Vehicle was prepared in the same fashion. Injection volume was determined by body weight (2 mL vehicle/compound per kg body weight). Body weight was measured at the time of injection.
Urine collection and assay: For urine collections, rats were housed individually in a metabolic cage supplied with food and water. Urine was collected into a 50 mL falcon tube for 24 hours. Total urine volume was measured and then centrifuged at 3,200 rcf for 10 min at 4° C. Albumin quantification was done according to previously published protocol (11), involving multiple dilutions of urine from each animal compared to Bovine Serum Albumin (BSA) standards. Coumassie Blue stained gels were quantified by densitometry using ImageJ software. As an additional control, the rat ELISA Albumin kit (Exocell) was used for albumin quantification according to the manufacturer's recommendations and yielded the same results. Urine protein was measured using QuanTtest® Red Total Protein Assay System (Quantimetrix, Redondo Beach, Calif.) and expressed as mg protein/24 hours. […]

c1ccc(Cn2c(NCc3ccco3)nc3ccccc32)cc1 [AC1903]
numbers of podocytes per glomerulus (AC1903 treated Dahl S rats, stated similar to WT and AC1903-treated AT1R Tg rats): approximately 120 podocytes/glom
BUN (AC1903 treatment): no effect
body weight (AC1903 treatment): no effect
creatinine (AC1903 treatment): no effect
mean arterial pressure (MAP) (AC1903 treatment): did not affect
numbers of podocytes per glomerulus compared to vehicle-treated controls (Advanced, AC1903 50 mg/kg): higher
proteinuria (Advanced: 50 mg/kg, treatment day 7 to day 14 of 2% NaCl): significant suppression of proteinuria
rate of progressive proteinuria (Onset: 50 mg/kg twice daily i.p. from start of 2% NaCl diet, 1 week): significantly reduced
